Square brackets hold non-standard residues; d marks the D form. Peptide text beside a SMILES is read from it. pGlu = O=C1CC[C@@H](C(=O)O)N1
Experiments:
[1] = tested on: leucocytes (WBC); assay: Effect on mice to which cyclophosphamide (CPA) was intraperitoneally administered: blood inspection, WBC; assay type: in vivo, male C3H/HeN mice; conditions: for WBC, mean value ± S.D.: 400 mg/kg of CPA alone i.p. once on day zero
Procedure: (§1) Several groups each consisting of 10 male C3H/HeN mice of 8 weeks old were prepared. For the first group, 0.2 ml of physiological saline was subcutaneously administered for consecutive 12 days from 2 days before the examination to the 9th day of the examination. For the second group, FTS substance was subcutaneously administered once a day in an amount of 100 iig/0.2 ml for consecutive 12 days. For the third group, CPA was intraperitoneally administered in an amount of 400 mg/kg once on the zero day of the examination. For the fourth group, an administration schedule combining the second group with the third group was applied to the mice. For the fifth group, CPA was intraperitoneally administered in an amount 200 mg/kg once on the zero day of the examination. For the sixth group, an administration schedule combining the second group with the fifth group was applied to the mice. For the seventh group, CPA was intraperitoneally administered in an amount of 100 mg/kg once on the zero day of the examination. For the eighth group, an administration schedule combining the second group with the seventh group to the mice. During the examination, blood was collected by cutting axillary artery on the days of examination (0, 3rd, 5th, 7th, 10th and 14th days) and subjected to a blood inspection to measure the number of leucocytes (WBC), the number of erythrocytes (RBC), the number of reticulocytes (RET), the number of platelets (PLT), the number of hemoglobin (HGB), hematocrit value (HCT), a mean corpuscular volume, a mean corpuscular hemoglobin and a mean corpuscular hemoglobin concentration.

[2] = tested on: reticulocytes (RET); assay: Effect on mice to which CPA was intraperitoneally administered: blood inspection, RET; assay type: in vivo, male C3H/HeN mice
Procedure: as §1, with “During the examination, blood was collected by cutting axillary artery on the days of examination (0, 3rd, 5th, 7th, 10th and 14th days) and subjected to a blood inspection to measure the number of leucocytes (WBC), the number of erythrocytes (RBC), the number of reticulocytes (RET), the number of platelets (PLT), the number of hemoglobin (HGB), hematocrit value (HCT), a mean corpuscular volume, a mean corpuscular hemoglobin and a mean corpuscular hemoglobin concentration.” left out

[3] = tested on: platelets (PLT); assay: Effect on mice to which CPA was intraperitoneally administered: blood inspection, PLT; assay type: in vivo, male C3H/HeN mice
Procedure: as §1

[4] = Effect on mice to which CPA was intraperitoneally administered: body weight; assay type: in vivo, male C3H/HeN mice; conditions: CPA alone
Procedure: as §1, with “During the examination, blood was collected by cutting axillary artery on the days of examination (0, 3rd, 5th, 7th, 10th and 14th days) and subjected to a blood inspection to measure the number of leucocytes (WBC), the number of erythrocytes (RBC), the number of reticulocytes (RET), the number of platelets (PLT), the number of hemoglobin (HGB), hematocrit value (HCT), a mean corpuscular volume, a mean corpuscular hemoglobin and a mean corpuscular hemoglobin concentration.” left out

[5] = tested on: leucocytes in peripheral blood; assay: Effect on mice to which MMC was intraperitoneally administered: leucocyte count; assay type: in vivo, female ICR/JCL mice; conditions: MMC alone, 20 µg/0.1 ml i.p. once a day for 10 days
Procedure: Four groups each consisting of 6 female ICR/JCL mice of 5 weeks old were treated as follows: For the first group, 0.1 ml of physiological saline was intraperitoneally administered to the mice for consecutive 12 days. For the second group, FTS substance was subcutaneously administered once a day in an amount of 100 u.g for consecutive 12 days. For the third group, MMC was intraperitoneally administered once a day in an amount of 20 µg/0.1 ml for 10 days from the zero day to the 9th day of the experiment. For the fourth group, FTS substance was subcutaneously administered to the mice once a day in an amount of 100 µg for consecutive 12 days from 2 days before the administration of MMC, and for 10 days from the […] after the administration of FTS substance MMC was intraperitoneally administered once a day in an amount of 20 u.g/0.1 ml. After the administration of the anti-cancer agent, blood was collected on alternate days from oculus vein and the numbr of leucocytes in the blood was counted.

[6] = tested on: ddy strain male mice; assay: Toxicity test in mice, repeated subcutaneous administration; assay type: in vivo; conditions: for toxicity: five ddy strain male mice of 5 weeks old
Source text: (§2) Thus, the medicament of the present invention is a safe medicament of extremely low toxicity and can be administered for a long period of time.

[7] = tested on: Wistar rats; assay: Toxicity test in rats, repeated subcutaneous administration; assay type: in vivo; conditions: 30 mg/kg s.c. for consecutive 21 days
Source text: as §2

[8] = 7th day, 400mg/kg of CPA alone i.p. once on day zero

With O=P1(N(CCCl)CCCl)NCCCO1 (stereo not drawn) [CPA, cyclophosphamide] the “WBC, mean value ± S.D.” value ([1]; 3rd day) was 11.6±2.1 x 10^2/mm^3, the “WBC, mean value ± S.D.” value ([1]; 5th day) was 4.2±1.0 x 10^2/mm^3 and the WBC change ([1]; CPA alone 400 mg/kg, 200 mg/kg or 100 mg/kg, 3rd, 5th and 7th day, 5th day the minimum) was “considerably decreased”. The RET [2, 8] was 27.2±5.0 0/00, the RET change ([2]; CPA administered, 5th day the minimum) was “RET was decreased” and the PLT change ([3]; 400 mg/kg and 200 mg/kg of CPA, 7th day the minimum, recovered to the normal range on the 10th day) was “PLT was decreased”. The PLT ([3]; 5th day, 400 mg/kg of CPA alone i.p. once on day zero) was 357±82 x 10^3/mm^3, the PLT [3, 8] was 214±73 x 10^3/mm^3 and the body weight change [4] was “decrease in body weight”.
For CO[C@@]12[C@H](COC(N)=O)C3=C(C(=O)C(C)=C(N)C3=O)N1C[C@@H]1N[C@@H]12 [MMC, mitomycine C], the “number of leucocytes, lowest level as % of the maximum normal range” value [5] was “about 40%”.
With C[C@H](NC(=O)[C@@H]1CCC(=O)N1)C(=O)N[C@@H](CCCCN)C(=O)N[C@@H](CO)C(=O)N[C@@H](CCC(N)=O)C(=O)NCC(=O)NCC(=O)N[C@@H](CO)C(=O)N[C@@H](CC(N)=O)C(=O)O [effective ingredient, pGlu-Ala-Lys-Ser-Gln-Gly-Gly-Ser-Asn] ([pGlu]AKSQGGSN-OH) the toxicity ([6]; 50 mg/kg s.c. for consecutive 14 days) was “No toxicity was observed”, the “abnormal symptoms by external check” value ([6]; 100 mg/kg s.c. every day for consecutive 14 days, mice) was “no abnormal symptom was found” and the toxicity ([6]; 100mg/kg s.c. for consecutive 14 days) was “No toxicity was observed”. For the same compound, the “abnormal symptoms in external behavior observation, biochemical diagnosis of sera and pathological anatomy” value ([7]; rats) was “no abnormal symptom was found” and the toxicity ([7]; ten Wistar rats of 5 weeks old) was “No toxicity was observed”.
